Reference: the supplement of paper PMC7661543
± gives the standard deviation of the averaged measurements.

How the values were obtained:
Assay in all cases: relative cell number vs DMSO control (72 h) (% of DMSO); higher = less growth inhibition (more cells)
Conditions in all cases: sgRNA knockout: sgNT
BT-20 = tested on: BT-20
Method: (§1)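 QMAP-Seq: a pool of 5 breast cancer cell lines (ZR-75-1, SKBR3, HCC-38, MDA-MB-231, BT-20), each carrying 12 doxycycline-inducible Cas9 sgRNA perturbations (11 knockouts plus non-targeting sgNT), was treated with compounds for 72 h at four 10-fold doses (10 nM-10 uM or 1 nM-1 uM range). Barcodes were amplified and sequenced, and cell number was interpolated from 293T spike-in standard curves. The result is expressed as % of the median of DMSO wells. Two biological replicates.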

HCC-38 = tested on: HCC-38
Method: as §1

MDA-MB-231 = tested on: MDA-MB-231
Method: as §1

SKBR3 = tested on: SKBR3
Method: as §1

ZR-75-1 = tested on: ZR-75-1
Method: as §1

Row | SMILES | relative cell number (BT-20; 10 nM) | relative cell number (BT-20; 100 nM) | relative cell number (BT-20; 1000 nM) | relative cell number (BT-20; 10000 nM) | relative cell number (HCC-38; 10 nM) | relative cell number (HCC-38; 100 nM) | relative cell number (HCC-38; 1000 nM) | relative cell number (HCC-38; 10000 nM) | relative cell number (MDA-MB-231; 10 nM) | relative cell number (MDA-MB-231; 100 nM) | relative cell number (MDA-MB-231; 1000 nM) | relative cell number (MDA-MB-231; 10000 nM) | relative cell number (SKBR3; 10 nM) | relative cell number (SKBR3; 100 nM) | relative cell number (SKBR3; 1000 nM) | relative cell number (SKBR3; 10000 nM) | relative cell number (ZR-75-1; 10 nM) | relative cell number (ZR-75-1; 100 nM) | relative cell number (ZR-75-1; 1000 nM) | relative cell number (ZR-75-1; 10000 nM)
1 | Cc1cc2c(C(C)C)c(O)c(O)c(C=O)c2c(O)c1-c1c(C)cc2c(C(C)C)c(O)c(O)c(C=O)c2c1O [Gossypol] | 96.2 ± 1.7 | 80.1 ± 8.4 | 113 ± 39 | 44.9 ± 2 | 96.4 ± 16 | 91.6 ± 12 | 107.2 ± 0.47 | 27 ± 1.4 | 125 ± 38 | 87.2 ± 6.4 | 103 ± 33 | 22.7 ± 7.3 | 101.3 ± 0.15 | 94.3 ± 8.1 | 103 ± 7.4 | 24.6 ± 2.8 | 129 ± 19 | 96 ± 13 | 106 ± 54 | 26.9 ± 14
2 | COc1cc2c(cc1-c1c(C)noc1C)ncc1[nH]c(=O)n([C@H](C)c3ccccn3)c12 [IBET151] | 82.5 ± 2.4 | 90.5 ± 39 | 72.5 ± 0.91 | 49.4 ± 3.8 | 85.1 ± 6.5 | 82.8 ± 13 | 60.2 ± 2.5 | 53.6 ± 3.3 | 88.1 ± 9 | 72.1 ± 3.6 | 42.4 ± 2 | 19 ± 15 | 64.9 ± 9 | 88.5 ± 6.6 | 47.8 ± 1.4 | 31.9 ± 9.4 | 65.6 ± 36 | 104 ± 28 | 49 ± 4.5 | 37.5 ± 0.4
3 | O=P1(NCCCl)OCCCN1CCCl (stereo not given) [Ifosfamide] | 71.6 ± 2.8 | 89.6 ± 16 | 109.5 ± 0.23 | 84.7 ± 16 | 107 ± 4.6 | 96 ± 20 | 105 ± 14 | 100 ± 11 | 75.5 ± 8 | 95.4 ± 25 | 103 ± 13 | 95.5 ± 5.4 | 74.2 ± 5.4 | 74.6 ± 24 | 82.8 ± 25 | 71.9 ± 38 | 69.6 ± 31 | 107 ± 35 | 79.1 ± 40 | 85.6 ± 8.3
4 | O=C(/C=C/c1ccc(O)cc1)c1ccc(O)cc1O [Isoliquiritigenin] | 113 ± 12 | 95.4 ± 25 | 80.4 ± 11 | 94.9 ± 1.9 | 96.1 ± 6.6 | 92.5 ± 6.5 | 96.7 ± 11 | 86.5 ± 9.8 | 87.3 ± 22 | 75.5 ± 23 | 87 ± 3 | 88 ± 26 | 83.1 ± 20 | 109 ± 30 | 82.7 ± 16 | 68.9 ± 8.6 | 120 ± 22 | 88 ± 10 | 99.8 ± 30 | 83.9 ± 5.5
5 | CCn1c(=O)c2c(nc(/C=C/c3ccc(OC)c(OC)c3)n2C)n(CC)c1=O [Istradefylline] | 109 ± 12 | 104 ± 5.7 | 94.8 ± 12 | 106 ± 8.2 | 88.28 ± 0.69 | 99.3 ± 24 | 93.3 ± 8.3 | 106 ± 2.4 | 86 ± 1.8 | 146 ± 30 | 93.8 ± 5.8 | 105 ± 43 | 80.5 ± 18 | 84.2 ± 5.3 | 99.5 ± 23 | 112 ± 15 | 128 ± 37 | 114 ± 3.4 | 110 ± 7.6 | 94.9 ± 19
6 | O=C(c1ccc(/C=C/c2n[nH]c3ccccc23)cc1)N1CCNCC1 [KW2449] | 109 ± 15 | 89.6 ± 4.7 | 113 ± 20 | 79.4 ± 13 | 88 ± 8 | 87.64 ± 0.15 | 81 ± 5.1 | 42.2 ± 5.9 | 103 ± 14 | 116 ± 35 | 78.79 ± 0.17 | 35.4 ± 8.4 | 69 ± 16 | 72.7 ± 10 | 104 ± 5.3 | 73.1 ± 49 | 75.6 ± 8.1 | 104 ± 3.9 | 48.8 ± 12 | 56 ± 10
7 | O=C(Cc1ccc(-c2ccc(OCCN3CCOCC3)cc2)cn1)NCc1ccccc1 [KX2391] | 127 ± 31 | 36.5 ± 7.8 | 33.3 ± 7 | 31.8 ± 10 | 139 ± 16 | 24.4 ± 0.93 | 24.1 ± 1.9 | 30.8 ± 3.4 | 108 ± 56 | 30.3 ± 9.2 | 18 ± 2.3 | 19.78 ± 0.15 | 91.5 ± 17 | 17.8 ± 2 | 8.71 ± 3 | 10.3 ± 2.5 | 132 ± 43 | 24.8 ± 2.5 | 24.6 ± 4.9 | 17.8 ± 8.4
8 | COc1cc(C(=O)N2CCC(N3CCN(C)CC3)CC2)ccc1Nc1ncc2c(n1)N(C)c1ccccc1C(=O)N2C [LRRK2IN1] | 116 ± 14 | 93.7 ± 7.9 | 93.8 ± 15 | 38.2 ± 4 | 100 ± 8.9 | 84.8 ± 7 | 67.3 ± 4 | 42.4 ± 1.1 | 123 ± 3.5 | 96.6 ± 1.3 | 44.2 ± 7.9 | 16 ± 2.8 | 111 ± 44 | 70.9 ± 6 | 71 ± 31 | 32.9 ± 13 | 106 ± 7 | 152 ± 59 | 69.4 ± 3 | 19.1 ± 5.2
9 | CS(=O)(=O)CCNCc1ccc(-c2ccc3ncnc(Nc4ccc(OCc5cccc(F)c5)c(Cl)c4)c3c2)o1 [Lapatinib] | 96.3 ± 16 | 84.7 ± 12 | 78.7 ± 9.5 | 77 ± 4.7 | 97.5 ± 7 | 87 ± 6.9 | 89.7 ± 7.5 | 60.2 ± 1.2 | 120 ± 15 | 90 ± 36 | 83.6 ± 3 | 38.2 ± 8.8 | 77.6 ± 11 | 73.9 ± 0.55 | 64.9 ± 19 | 16.3 ± 2.1 | 112 ± 32 | 63.6 ± 13 | 86.8 ± 17 | 33.4 ± 10
10 | COc1cc2nccc(Oc3ccc(NC(=O)NC4CC4)c(Cl)c3)c2cc1C(N)=O [Lenvatinib] | 94.9 ± 21 | 97.5 ± 14 | 128 ± 7.1 | 93.5 ± 36 | 95.3 ± 5.8 | 96.8 ± 4.3 | 101 ± 33 | 68.4 ± 10 | 94.7 ± 34 | 122 ± 7.1 | 114 ± 15 | 86.5 ± 25 | 111 ± 9.8 | 92.6 ± 8.6 | 85.9 ± 42 | 94.1 ± 35 | 84.1 ± 11 | 92.2 ± 22 | 108 ± 20 | 90.8 ± 15
